Test results reported in US10059713B2 (Takeda Pharmaceutical Company Limited, priority 2014, dated 2018).
pEC50: −log10 of the molar value.

biological target: human GPR43 (Homo sapiens (Human), UniProt O15552); test: Ca-Flux functional assay: determination of agonist/positive allosteric modulator (PAM) activity; format: cell-based; settings: CHO-K1 Gα16 cells stably expressing human GPR43; compound added with EC20 sodium acetate; intracellular Ca2+ by FLIPR; does not distinguish agonist from PAM
Sequence (O15552 whole entry): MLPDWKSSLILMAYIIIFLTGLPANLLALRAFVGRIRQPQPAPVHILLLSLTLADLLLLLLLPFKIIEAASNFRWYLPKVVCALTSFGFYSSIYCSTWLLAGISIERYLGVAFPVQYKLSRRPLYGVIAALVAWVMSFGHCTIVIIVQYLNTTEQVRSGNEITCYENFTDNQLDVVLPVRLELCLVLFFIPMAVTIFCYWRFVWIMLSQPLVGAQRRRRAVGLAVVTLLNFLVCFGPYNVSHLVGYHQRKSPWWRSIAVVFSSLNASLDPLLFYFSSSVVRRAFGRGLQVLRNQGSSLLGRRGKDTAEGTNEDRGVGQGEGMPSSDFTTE
Experimental: Ca-Flux Functional Assay: Determination of Agonist/Positive Allosteric Modulator (PAM) Activity
GPR43 agonist/PAM activity was determined by measuring changes in intracellular calcium levels using a Ca^2+ sensitive fluorescent dye. The changes in fluorescent signal were monitored by FLIPR (manufactured by Molecular Devices). GPR43 mediated increases in intracellular Ca^2+ concentration were readily detected upon activation with sodium acetate. Prior to the assay (24 hours), CHO-K1 Gα16 cells stably expressing human GPR43 were-seeded in cell culture medium in black, clear-bottom 384-well plates (Corning Inc) and grown overnight at 37° C., 5% CO2. On the day of the assay, cell culture media was removed and cells were loaded with Calcium 5 Dye (Molecular Devices) diluted in HBSS containing 25 mM HEPES, 2.5 mM Probenecid, 0.1% BSA for 1 hour at 37° C., 5% CO2. 10 point half log concentration response curves of sodium acetate from 10 mM were conducted prior to the testing of compounds to calculate the sodium acetate concentration that produces 20% of the maximal response (EC20). Test compounds (at 10 point half log concentration response curves from 10 μM) were added in the presence of sodium acetate to achieve a final concentration that produces approximately 20% maximal response as calculated from the previous experiment. The changes in fluorescent signal were monitored by FLIPR upon addition of the compound/EC20 sodium acetate mix. The EC50 values were determined from ten point concentration response curves. Curves were generated using the average of two wells for each data point.
The above assay detects both GPR43 receptor agonists and positive allosteric modulators of the GPR43 receptor, without distinguishing between the two. Activity in either regard is useful in the treatment of conditions associated with GPR43 receptor activity.

Row | Structure (SMILES) | pEC50
1 | COc1ccc(S(=O)(=O)c2c(N)[nH]c3c(N4CCOC(C)C4)ncnc23)cc1F (stereo not drawn) [Example 124, 7-(3-fluoro-4-methoxybenzenesulfonyl)-4-(2-methylmorpholin-4-yl)-5H-pyrrolo[3,2-d]pyrimidin-6-amine] | 7.20
2 | Cc1nc(N2CCOC(C)(C)C2)c2[nH]c(N)c(S(=O)(=O)c3cc(F)ccc3F)c2n1 [Example 288, 7-(2,5-difluorobenzenesulfonyl)-4-(2,2-dimethylmorpholin-4-yl)-2-methyl-5H-pyrrolo[3,2-d]pyrimidin-6-amine] | 8.10
3 | COc1ccc(N(C)S(=O)(=O)c2c(N)[nH]c3c(C4=CCCCC4)ncnc23)cc1 [Example 14, 6-amino-4-(cyclohex-1-en-1-yl)-N-(4-methoxyphenyl)-N-methyl-5H-pyrrolo[3,2-d]pyrimidine-7-sulfonamide] | 5.59
4 | CC1CN(c2ncnc3c(S(=O)(=O)c4ccc(Cl)c(F)c4)c(N)[nH]c23)CCO1 (stereo not drawn) [Example 143, 7-(4-chloro-3-fluorobenzenesulfonyl)-4-(2-methylmorpholin-4-yl)-5H-pyrrolo[3,2-d]pyrimidin-6-amine] | 7.46
5 | Nc1[nH]c2c(N3CCC(OCC4CC4)CC3)ncnc2c1S(=O)(=O)c1ccccc1 [Example 116, 7-(benzenesulfonyl)-4-[4-(cyclopropylmethoxy)piperidin-1-yl]-5H-pyrrolo[3,2-d]pyrimidin-6-amine] | 7.10
6 | Cc1cc(CN(C)c2ncnc3c(S(=O)(=O)c4ccccc4)c(N)[nH]c23)no1 [Example 99, 7-(benzenesulfonyl)-4-N-methyl-4-N-[(5-methyl-1,2-oxazol-3-yl)methyl]-5H-pyrrolo[3,2-d]pyrimidine-4,6-diamine] | 5.33
7 | Cc1nc(N2C[C@@H](C)O[C@@H](C)C2)c2[nH]c(N)c(S(=O)(=O)c3ccccc3)c2n1 [Example 138, 7-(benzenesulfonyl)-4-[(2R,6S)-2,6-dimethylmorpholin-4-yl]-2-methyl-5H-pyrrolo[3,2-d]pyrimidin-6-amine] | 8.22
8 | C=C(C)c1ncnc2c(S(=O)(=O)c3ccccc3)c(N)[nH]c12 [Example 12, 7-(benzenesulfonyl)-4-(prop-1-en-2-yl)-5H-pyrrolo[3,2-d]pyrimidin-6-amine] | 6.45
9 | Cc1ccc(S(=O)(=O)c2c(N)[nH]c3c(C4CCCCC4)ncnc23)cc1 [Example 45, 4-cyclohexyl-7-[(4-methylbenzene)sulfonyl]-5H-pyrrolo[3,2-d]pyrimidin-6-amine] | 7.08
10 | Nc1[nH]c2c(OCC3CCOCC3)ncnc2c1S(=O)(=O)c1ccccc1 [Example 169, 7-(benzenesulfonyl)-4-(oxan-4-ylmethoxy)-5H-pyrrolo[3,2-d]pyrimidin-6-amine] | 5.72
11 | Cc1nc(OC(C)C)c2[nH]c(N)c(S(=O)(=O)c3ccccc3F)c2n1 [Example 272, 7-(2-fluorobenzenesulfonyl)-2-methyl-4-(propan-2-yloxy)-5H-pyrrolo[3,2-d]pyrimidin-6-amine] | 7.47
12 | Nc1[nH]c2c(O[C@H]3CCOC3)ncnc2c1S(=O)(=O)c1ccccc1 [Example 158, 7-(benzenesulfonyl)-4-[(3S)-oxolan-3-yloxy]-5H-pyrrolo[3,2-d]pyrimidin-6-amine] | 5.51
13 | Cc1nc(OC(C)C2CCC2)c2[nH]c(N)c(S(=O)(=O)c3ccccc3)c2n1 (stereo not drawn) [Example 256, 7-(benzenesulfonyl)-4-(1-cyclobutylethoxy)-2-methyl-5H-pyrrolo[3,2-d]pyrimidin-6-amine] | 7.74
14 | Nc1[nH]c2cc(Cl)cnc2c1S(=O)(=O)c1ccccc1 [Example 10, 3-(benzenesulfonyl)-6-chloro-1H-pyrrolo[3,2-b]pyridin-2-amine] | 6.20
15 | Cc1nc(N2CCOC(C)(C)C2)c2[nH]c(N)c(S(=O)(=O)c3ccc(F)cc3F)c2n1 [Example 278, 7-(2,4-difluorobenzenesulfonyl)-4-(2,2-dimethylmorpholin-4-yl)-2-methyl-5H-pyrrolo[3,2-d]pyrimidin-6-amine] | 8.22
16 | CCN(Cc1cnn(C)c1)c1ncnc2c(S(=O)(=O)c3ccccc3)c(N)[nH]c12 [Example 64, 7-(benzenesulfonyl)-4-N-ethyl-4-N-[(1-methyl-1H-pyrazol-4-yl)methyl]-5H-pyrrolo[3,2-d]pyrimidine-4,6-diamine] | 5.63
17 | CC1CN(c2nc(C(F)(F)F)nc3c(S(=O)(=O)c4cccc(F)c4)c(N)[nH]c23)CCO1 (stereo not drawn) [Example 265, 7-(3-fluorobenzenesulfonyl)-4-(2-methylmorpholin-4-yl)-2-(trifluoromethyl)-5H-pyrrolo[3,2-d]pyrimidin-6-amine] | 7.17
18 | Nc1[nH]c2c(C3=CCCCC3)ncnc2c1S(=O)(=O)c1ccc(Cl)cc1 [Example 21, 7-[(4-chlorobenzene)sulfonyl]-4-(cyclohex-1-en-1-yl)-5H-pyrrolo[3,2-d]pyrimidin-6-amine] | 7.27
19 | Nc1[nH]c2c(C3=CCCCC3)nncc2c1S(=O)(=O)c1ccccc1 [Example 227, 3-(benzenesulfonyl)-7-(cyclohex-1-en-1-yl)-1H-pyrrolo[2,3-d]pyridazin-2-amine] | 6.99
20 | CNc1[nH]c2c(C3CCCCC3)ncnc2c1S(=O)(=O)c1ccccc1 [Example 35, 7-(benzenesulfonyl)-4-cyclohexyl-N-methyl-5H-pyrrolo[3,2-d]pyrimidin-6-amine] | 5.12
21 | Cc1nc(N2CCOC(C)C2)c2[nH]c(N)c(S(=O)(=O)c3ccccc3)c2n1 (stereo not drawn) [Example 111, 7-(benzenesulfonyl)-2-methyl-4-(2-methylmorpholin-4-yl)-5H-pyrrolo[3,2-d]pyrimidin-6-amine] | 7.72
22 | CC(Oc1ncnc2c(S(=O)(=O)c3ccccc3)c(N)[nH]c12)C1CCCC1 (stereo not drawn) [Example 212, 7-(benzenesulfonyl)-4-(1-cyclopentylethoxy)-5H-pyrrolo[3,2-d]pyrimidin-6-amine] | 7.96
23 | Nc1[nH]c2c(C3CCCCC3)ncnc2c1S(=O)(=O)c1ccc(OC(F)F)cc1 [Example 36, 4-cyclohexyl-7-{[4-(difluoromethoxy)benzene]sulfonyl}-5H-pyrrolo[3,2-d]pyrimidin-6-amine] | 7.06

The remaining compounds from weak to strong by pEC50, led by results:

Row | pEC50 | Structure (SMILES)
24 | 5.26 | O=S(=O)(c1ccccc1)c1c(NC2CCC(F)(F)CC2)[nH]c2ncccc12 [Example 1, 3-(benzenesulfonyl)-N-(4,4-difluorocyclohexyl)-1H-pyrrolo[2,3-b]pyridin-2-amine]
25 | 5.52 | Nc1[nH]c2c(OCC3CCCCO3)ncnc2c1S(=O)(=O)c1ccccc1 (stereo not drawn) [Example 156, 7-(benzenesulfonyl)-4-(oxan-2-ylmethoxy)-5H-pyrrolo[3,2-d]pyrimidin-6-amine]
26 | 6.88 | Cc1ccccc1S(=O)(=O)c1c(N)[nH]c2c(N3CCOC(C)C3)ncnc12 (stereo not drawn) [Example 120, 7-(2-methylbenzenesulfonyl)-4-(2-methylmorpholin-4-yl)-5H-pyrrolo[3,2-d]pyrimidin-6-amine]
27 | 6.90 | Cc1nc(N2CCO[C@@H](C)C2)c2[nH]c(N)c(S(=O)(=O)c3ccc(Br)cc3N3CCO[C@@H](C)C3)c2n1 [Example 240, 7-{4-bromo-2-[(2S)-2-methylmorpholin-4-yl]benzenesulfonyl}-2-methyl-4-[(2S)-2-methylmorpholin-4-yl]-5H-pyrrolo[3,2-d]pyrimidin-6-amine]
28 | 7.10 | Nc1[nH]c2c(C3=CCCCC3)ncnc2c1S(=O)(=O)c1cccc(F)c1 [Example 37, 4-(cyclohex-1-en-1-yl)-7-[(3-fluorobenzene)sulfonyl]-5H-pyrrolo[3,2-d]pyrimidin-6-amine]
29 | 7.37 | Cc1nc(N2CCOC(C)(C)C2)c2[nH]c(N)c(S(=O)(=O)c3cccc(F)c3)c2n1 [Example 191, 4-(2,2-dimethylmorpholin-4-yl)-7-(3-fluorobenzenesulfonyl)-2-methyl-5H-pyrrolo[3,2-d]pyrimidin-6-amine]
30 | 7.59 | COc1ccc(S(=O)(=O)c2c(N)[nH]c3c(N4CCC5(CC4)CC5)ncnc23)cc1 [Example 72, 4-{6-azaspiro[2.5]octan-6-yl}-7-(4-methoxybenzenesulfonyl)-5H-pyrrolo[3,2-d]pyrimidin-6-amine]
31 | 8.52 | Cc1nc(N2CCO[C@@H](C(F)(F)F)C2)c2[nH]c(N)c(S(=O)(=O)c3c(F)cccc3F)c2n1 [Example 295, 7-(2,6-difluorobenzenesulfonyl)-2-methyl-4-[(2R)-2-(trifluoromethyl)morpholin-4-yl]-5H-pyrrolo[3,2-d]pyrimidin-6-amine]
32 | 8.70 | Cc1nc(N2CCO[C@H](C(F)(F)F)C2)c2[nH]c(N)c(S(=O)(=O)c3cccc(F)c3F)c2n1 [Example 285, 7-(2,3-difluorobenzenesulfonyl)-2-methyl-4-[(2S)-2-(trifluoromethyl)morpholin-4-yl]-5H-pyrrolo[3,2-d]pyrimidin-6-amine]
33 | 9.00 | Cc1nc(N2CCO[C@H](C(F)(F)F)C2)c2[nH]c(N)c(S(=O)(=O)c3ccc(F)cc3F)c2n1 [Example 283, 7-(2,4-difluorobenzenesulfonyl)-2-methyl-4-[(2S)-2-(trifluoromethyl)morpholin-4-yl]-5H-pyrrolo[3,2-d]pyrimidin-6-amine]
